Measurements as given in PubChem BioAssay (NCI).
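Cultured in 96-well plates, cells were exposed to test compound for 48 hours across five concentrations. TGI: total growth inhibition.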 *1 amine or outer side, *2 acyl side, *3 side chain or, on linkers, in order; H or OH if unused. Where a SMILES comes first, the peptide text is derived from it. Bridges are numbered along the chain shown (N, C = ends). Roman numbers before positions name the chains, in order. [ ]: non-standard residue; d: D form. Actinocin(9to1) = Cc1c2oc3c(C)ccc(C(=O)[*:1])c3nc-2c(C(=O)[*:2])c(N)c1=O; Hyp = O=C(O)[CH]1C[CH](O)CN1; NMeV = CN[CH](C(=O)O)C(C)C; Sar = CNCC(=O)O

How the values were obtained:
Assay in all cases: growth of human tumour cells (NCI), 48 h
PC-3 prostate = system: PC-3 prostate
CCRF-CEM leukemia = system: CCRF-CEM leukemia
RPMI-8226 leukemia = system: RPMI-8226 leukemia
SK-MEL-28 melanoma = system: SK-MEL-28 melanoma
A549 NSCLC = system: A549 NSCLC
LOX IMVI melanoma = system: LOX IMVI melanoma
NCI-H460 lung = system: NCI-H460 lung
T-47D breast = system: T-47D breast
SF-295 CNS = system: SF-295 CNS
SR leukemia = system: SR leukemia
OVCAR-4 ovarian = system: OVCAR-4 ovarian
HCT-15 colon = system: HCT-15 colon
IGROV1 ovarian = system: IGROV1 ovarian

Structure (SMILES)	TGI (PC-3 prostate) [µM]	TGI (CCRF-CEM leukemia) [µM]	TGI (RPMI-8226 leukemia) [µM]	TGI (SK-MEL-28 melanoma) [µM]	TGI (A549 NSCLC) [µM]	TGI (LOX IMVI melanoma) [µM]	TGI (NCI-H460 lung) [µM]	TGI (T-47D breast) [µM]	TGI (SF-295 CNS) [µM]	TGI (SR leukemia) [µM]	TGI (OVCAR-4 ovarian) [µM]	TGI (HCT-15 colon) [µM]	TGI (IGROV1 ovarian) [µM]
c1ccc(Nc2nn3c(CCCCCCCCc4nnc5sc(Nc6ccccc6)nn45)nnc3s2)cc1	> 100	63.9	> 100	> 100	> 100	> 100	> 100	67.1	71.8	38.3	> 100	> 100	
CCOC1NC(=O)Oc2cc3ccccc3cc21 (stereo not drawn)	> 100	> 100	> 100	> 100	> 100	> 100	> 100	> 100	> 100	> 100	> 100	> 100	> 100
C=CCOC(OCC=C)/C(Br)=C/C	> 100	> 100	> 100	> 100	> 100	39.5	> 100	72.6	> 100	> 100	63.7	89.3	
O=c1c2cnccc2cc2c3ccccc3ccn12	> 100	> 100	> 100	> 100	> 100	> 100	> 100	> 100	> 100	> 100	> 100	> 100	33.3
Cc1c2oc3c(C)ccc(C(=O)NC4C(=O)NC(C(C)C)C(=O)N5CC(O)CC5C(=O)N(C)CC(=O)N(C)C(C(C)C)C(=O)OC4C)c3nc-2c(C(=O)NC2C(=O)NC(C(C)C)C(=O)N3CC(O)CC3C(=O)N(C)CC(=O)N(C)C(C(C)C)C(=O)OC2C)c(N)c1=O (stereo not drawn) (I: TV[Hyp][Sar][NMeV] / II: TV[Hyp][Sar][NMeV]; ester I:1-I:C, II:1-II:C; linker I:N-II:N via Actinocin(9to1); configuration not given here)	> 1	> 1	> 1	> 1	> 1	> 1	> 1	> 1	> 1	> 1	> 1	> 1	> 1
CCCCc1ccc(Nc2nc(Cl)c3c(ncn3C3CC(Oc4ccc(C)cc4)C(COc4ccc(C)cc4)O3)n2)cc1 (stereo not drawn)	> 100	> 100	> 100		> 100	> 100	> 100	> 100	> 100	> 100	> 100	> 100	> 100
Cc1cc2c(c(S(=O)(=O)c3ccccc3[N+](=O)[O-])c1)NCCC2	> 100		> 100	> 100	> 100	> 100	> 100	40.2	> 100	> 100	> 100	> 100	> 100
C=C(C)[C@H]1C2=CC(C)=C(O2)[C@@H](O)[C@H](C(=C)C)CCC2=C[C@H]1OC2=O	> 100	> 100	> 100	> 100	> 100	> 100	> 100	> 100	> 100	> 100	> 100	> 100	> 100
CN(CCCNC(=O)c1nn(C)c2c1Cc1ccccc1-2)CCCNC(=O)c1nn(C)c2c1Cc1ccccc1-2	34.1	10.9	35.9	38.2	33.3	21.1	37.6	61.8	34.7	> 100	32.5	40.4	35
